Source: patent US20230053540A1, “TREATMENT OF LIVER INJURY” (Massachusetts Institute of Technology, priority 2019, published 2023)

Test system: hepatocytes
Test: Seq-Well scRNA-Seq of hepatocytes after APAP overdose (signature scores, DEG vs untreated)
Type: in vivo, mouse
[1] = cluster A96, DEG between treatment (APAP and PH)
[2] = fraction of A96 (APAP, 96 h) hepatocytes expressing the gene
[3] = hepatocyte cluster A96 (APAP, 96 h) vs all other clusters

CC(=O)Nc1ccc(O)cc1 [APAP, acetaminophen]
avg_logFC, gene Decr2 [1]: 0.3018 | avg_logFC, gene Dhdh [1]: 0.2626 | avg_logFC, gene Etfdh [1]: 0.2639 | avg_logFC, gene Etnppl [1]: 0.3154 | avg_logFC, gene F5 [1]: 0.2566 | avg_logFC, gene Fmo1 [1]: 0.265 | avg_logFC, gene G0s2 [1]: 0.2656 | avg_logFC, gene G6pc [1]: 0.2541 | avg_logFC, gene Gabarapl1 [1]: 0.2932 | avg_logFC, gene Gadd45b [1]: 0.2598 | avg_logFC, gene Gas5 [1]: 0.2823 | avg_logFC, gene Gm4952 [1]: 0.2581 | avg_logFC, gene Gsta2 [1]: 0.311 | avg_logFC, gene Gstt3 [1]: 0.3026 | avg_logFC, gene Gyk [1]: 0.3134 | avg_logFC, gene Hmgcl [1]: 0.2744 | avg_logFC, gene Hmgcs1 [1]: 0.3251 | avg_logFC, gene Hpgd [1]: 0.3412 | avg_logFC, gene Hsd17b7 [1]: 0.3028 | avg_logFC, gene Hsd17b10 [1]: 0.2802 | avg_logFC, gene Igfbp1 [1]: 0.2603 | avg_logFC, gene Kif1b [1]: 0.2961 | avg_logFC, gene Lcat [1]: 0.2616 | avg_logFC, gene Mia3 [1]: 0.2604 | avg_logFC, gene Ndufa3 [1]: 0.2743 | avg_logFC, gene Ndufa7 [1]: 0.26 | avg_logFC, gene Nr1i3 [1]: 0.3481 | avg_logFC, gene Oat [1]: 0.4904 | avg_logFC, gene Pon1 [1]: 0.2899 | avg_logFC, gene Por [1]: 0.2867 | avg_logFC, gene Ppp1r3b [1]: 0.251 | avg_logFC, gene Ppp2r5a [1]: 0.3505 | avg_logFC, gene Ptms [1]: 0.2863 | avg_logFC, gene Pxmp4 [1]: 0.2555 | avg_logFC, gene Rdh16 [1]: 0.3477 | avg_logFC, gene Rdx [1]: 0.2566 | avg_logFC, gene Rgn [1]: 0.3686 | avg_logFC, gene Sc4mol [1]: 0.3361 | avg_logFC, gene Slc4a4 [1]: 0.2977 | avg_logFC, gene Slc25a20 [1]: 0.2507 | avg_logFC, gene Slco1a4 [1]: 0.3049 | avg_logFC, gene Snord118 [1]: 0.3782 | avg_logFC, gene Tgoln1 [1]: 0.2809 | avg_logFC, gene Tmed5 [1]: 0.2523 | avg_logFC, gene Tobi [1]: 0.2958 | avg_logFC, gene Tsc22d3 [1]: 0.3363 | avg_logFC, gene Zfp36l1 [1]: 0.2964 | avg_logFC, gene Zfp91 [1]: 0.2775 | pct.1 8430408G22Rik [2]: 0.559 | pct.1 Acot12 [2]: 0.65 | pct.1 Agpat6 [2]: 0.743 | pct.1 Aplp2 [2]: 0.826 | pct.1 Apoc2 [2]: 0.901 | pct.1 Apol7a [2]: 0.559 | pct.1 Aqp9 [2]: 0.801 | pct.1 Arl4a [2]: 0.517 | pct.1 Brap [2]: 0.642 | pct.1 Cd36 [2]: 0.299 | pct.1 Cebpb [2]: 0.585 | pct.1 Cede107 [2]: 0.59 | pct.1 Ces1e [2]: 0.71 | pct.1 Ces1f [2]: 0.895 | pct.1 Cisd1 [2]: 0.781 | pct.1 Cpeb4 [2]: 0.527 | pct.1 Cpox [2]: 0.634 | pct.1 Cxcl12 [2]: 0.635 | pct.1 D4Wsu53e [2]: 0.597 | pct.1 D17Wsu92e [2]: 0.771 | pct.1 Dcxr [2]: 0.735 | pct.1 Dhdh [2]: 0.734 | pct.1 Ech1 [2]: 0.917 | pct.1 Ehhadh [2]: 0.78 | pct.1 Ephx1 [2]: 0.879 | pct.1 Etfdh [2]: 0.811 | pct.1 Etnppl [2]: 0.677 | pct.1 Fmo1 [2]: 0.606 | pct.1 Gclm [2]: 0.865 | pct.1 Hamp2 [2]: 0.203 | pct.1 Hsd17b7 [2]: 0.56 | pct.1 Lcat [2]: 0.886 | pct.1 Mocs2 [2]: 0.737 | pct.1 Mtdh [2]: 0.649 | pct.1 Ndufa3 [2]: 0.737 | pct.1 Ndufb2 [2]: 0.731 | pct.1 Nfe2l2 [2]: 0.465 | pct.1 Oat [2]: 0.653 | pct.1 Pabpc1 [2]: 0.766 | pct.1 Pdk1 [2]: 0.438 | pct.1 Prkd3 [2]: 0.682 | pct.1 Ptp4a2 [2]: 0.691 | pct.1 Rgn [2]: 0.899 | pct.1 Sdhc [2]: 0.76 | pct.1 Sdhd [2]: 0.775 | pct.1 Slc4a4 [2]: 0.609 | pct.1 Slc25a10 [2]: 0.701 | pct.1 Tgoln1 [2]: 0.756 | pct.1 Tmed5 [2]: 0.714 | pct.1 Tmem106b [2]: 0.727 | pct.1 Tob1 [2]: 0.649 | pct.1 Tsc22d3 [2]: 0.534 | pct.1 Usmg5 [2]: 0.59 | pct.1 Zfp91 [2]: 0.693 | pct.1 Atp2a2 (gene Atp2a2, time point A96): 0.64 | avg_logFC Atp2a2 (gene Atp2a2, time point A96 vs untreated (UT)): 0.2537 | pct.1 Csad (gene Csad, time point A96): 0.843 | avg_logFC Csad (gene Csad, time point A96 vs untreated (UT)): 0.2906 | pct.1 Eef1b2 (gene Eef1b2, time point A96): 0.743 | avg_logFC Eef1b2 (gene Eef1b2, time point A96 vs untreated (UT)): −0.2686 | pct.1 Etnppl (gene Etnppl, time point A96): 0.677 | avg_logFC Etnppl (gene Etnppl, time point A96 vs untreated (UT)): 0.407 | pct.1 Fos (gene Fos, time point A96): 0.619 | avg_logFC Fos (gene Fos, time point A96 vs untreated (UT)): 0.3272 | pct.1 Ftl1 (gene Ftl1, time point A96): 0.363 | avg_logFC Ftl1 (gene Ftl1, time point A96 vs untreated (UT)): −0.2798 | pct.1 Gm20594 (gene Gm20594, time point A96): 0.262 | avg_logFC Gm20594 (gene Gm20594, time point A96 vs untreated (UT)): −0.2928 | pct.1 Hes6 (gene Hes6, time point A96): 0.33 | avg_logFC Hes6 (gene Hes6, time point A96 vs untreated (UT)): −0.2781 | pct.1 Hsd3b3 (gene Hsd3b3, time point A96): 0.499 | avg_logFC Hsd3b3 (gene Hsd3b3, time point A96 vs untreated (UT)): −0.313 | pct.1 Hsd17b2 (gene Hsd17b2, time point A96): 0.614 | avg_logFC Hsd17b2 (gene Hsd17b2, time point A96 vs untreated (UT)): −0.3005 | pct.1 Hsd17b13 (gene Hsd17b13, time point A96): 0.755 | avg_logFC Hsd17b13 (gene Hsd17b13, time point A96 vs untreated (UT)): 0.2678 | pct.1 Ifi27 (gene Ifi27, time point A96): 0.325 | avg_logFC Ifi27 (gene Ifi27, time point A96 vs untreated (UT)): −0.2572 | pct.1 Ifitm3 (gene Ifitm3, time point A96): 0.742 | avg_logFC Ifitm3 (gene Ifitm3, time point A96 vs untreated (UT)): −0.2797 | pct.1 Krt8 (gene Krt8, time point A96): 0.47 | avg_logFC Krt8 (gene Krt8, time point A96 vs untreated (UT)): −0.265 | pct.1 Malat1 (gene Malat1, time point A96): 0.702 | avg_logFC Malat1 (gene Malat1, time point A96 vs untreated (UT)): −0.4647 | pct.1 Mup2 (gene Mup2, time point A96): 0.256 | avg_logFC Mup2 (gene Mup2, time point A96 vs untreated (UT)): −0.5008 | pct.1 Mup4 (gene Mup4, time point A96): 0.824 | avg_logFC Mup4 (gene Mup4, time point A96 vs untreated (UT)): −0.6934 | pct.1 Naa50 (gene Naa50, time point A96): 0.517 | avg_logFC Naa50 (gene Naa50, time point A96 vs untreated (UT)): 0.2658 | pct.1 Ndufb11 (gene Ndufb11, time point A96): 0.669 | avg_logFC Ndufb11 (gene Ndufb11, time point A96 vs untreated (UT)): −0.2832 | pct.1 Nme1 (gene Nme1, time point A96): 0.561 | avg_logFC Nme1 (gene Nme1, time point A96 vs untreated (UT)): −0.2724 | pct.1 Oat (gene Oat, time point A96): 0.653 | avg_logFC Oat (gene Oat, time point A96 vs untreated (UT)): 0.3439 | pct.1 Pnpla7 (gene Pnpla7, time point A96): 0.455 | avg_logFC Pnpla7 (gene Pnpla7, time point A96 vs untreated (UT)): −0.3397 | pct.1 Prdx4 (gene Prdx4, time point A96): 0.517 | avg_logFC Prdx4 (gene Prdx4, time point A96 vs untreated (UT)): −0.314 | pct.1 Psmb1 (gene Psmb1, time point A96): 0.703 | avg_logFC Psmb1 (gene Psmb1, time point A96 vs untreated (UT)): −0.2659 | pct.1 Psmb5 (gene Psmb5, time point A96): 0.241 | avg_logFC Psmb5 (gene Psmb5, time point A96 vs untreated (UT)): −0.2633 | pct.1 Rarres1 (gene Rarres1, time point A96): 0.274 | avg_logFC Rarres1 (gene Rarres1, time point A96 vs untreated (UT)): −0.2874 | pct.1 Rgn (gene Rgn, time point A96): 0.899 | avg_logFC Rgn (gene Rgn, time point A96 vs untreated (UT)): 0.2614 | pct.1 Rpl32 (gene Rpl32, time point A96): 0.689 | avg_logFC Rpl32 (gene Rpl32, time point A96 vs untreated (UT)): −0.2631 | pct.1 Rpl41 (gene Rpl41, time point A96): 0.274 | avg_logFC Rpl41 (gene Rpl41, time point A96 vs untreated (UT)): −0.2575 | pct.1 Rps8 (gene Rps8, time point A96): 0.378 | avg_logFC Rps8 (gene Rps8, time point A96 vs untreated (UT)): −0.2585 | pct.1 Rps15 (gene Rps15, time point A96): 0.468 | avg_logFC Rps15 (gene Rps15, time point A96 vs untreated (UT)): −0.2545 | pct.1 Selk (gene Selk, time point A96): 0.393 | avg_logFC Selk (gene Selk, time point A96 vs untreated (UT)): −0.2647 | pct.1 Serp1 (gene Serp1, time point A96): 0.671 | avg_logFC Serp1 (gene Serp1, time point A96 vs untreated (UT)): −0.2992 | pct.1 Ubb (gene Ubb, time point A96): 0.379 | avg_logFC Ubb (gene Ubb, time point A96 vs untreated (UT)): −0.2685 | pct.1 mmu-mir-6236 (gene mmu-mir-6236, time point A96): 0.801 | avg_logFC mmu-mir-6236 (gene mmu-mir-6236, time point A96 vs untreated (UT)): −0.6272 | pct.1 mt-Atp6 (gene mt-Atp6, time point A96): 0.43 | avg_logFC mt-Atp6 (gene mt-Atp6, time point A96 vs untreated (UT)): −0.3955 | avg_logFC 8430408G22Rik [3]: 0.2774 | avg_logFC Acot12 [3]: 0.2802 | avg_logFC Agpat6 [3]: 0.2753 | avg_logFC Aplp2 [3]: 0.2569 | avg_logFC Apoc2 [3]: 0.2872 | avg_logFC Apol7a [3]: 0.3029 | avg_logFC Aqp9 [3]: 0.2901 | avg_logFC Arl4a [3]: 0.2934 | avg_logFC Brap [3]: 0.2572 | avg_logFC Cd36 [3]: 0.2782 | avg_logFC Cebpb [3]: 0.2515 | avg_logFC Cede107 [3]: 0.2626 | avg_logFC Ces1e [3]: 0.3109 | avg_logFC Ces1f [3]: 0.2782 | avg_logFC Cisd1 [3]: 0.282 | avg_logFC Cpeb4 [3]: 0.2994 | avg_logFC Cpox [3]: 0.2562 | avg_logFC Crls1 [3]: 0.255 | avg_logFC Cxcl12 [3]: 0.3005 | avg_logFC D4Wsu53e [3]: 0.2925 | avg_logFC D17Wsu92e [3]: 0.258 | avg_logFC Dcxr [3]: 0.2522 | avg_logFC Dhdh [3]: 0.2593 | avg_logFC Ech1 [3]: 0.2509 | avg_logFC Ehhadh [3]: 0.2545 | avg_logFC Ephx1 [3]: 0.252 | avg_logFC Etfdh [3]: 0.2768 | avg_logFC Etnppl [3]: 0.411
